# According to patent publication US20260284051A1, “METHIONINE ADENOSYLTRANSFERASE 2A (MAT2A) INHIBITOR COMBINATIONS AND USES THEREOF” (INSILICO MEDICINE IP LIMITED, priority 2023, published 2026):
# Key:
# KP4 MTAP null xenografts = experiment: Efficacy study of KP-4 human pancreatic cancer xenograft model in NOD SCID mice; type: in vivo; details: for Tumor volume (mm^3) Final (mean): Mean ± SD
# Method: Efficacy Study of KP-4 Human Pancreatic Cancer Xenograft Model in NOD SCID Mice
# The KP-4 tumor cell line was maintained in vitro as monolayer culture in RPMI 1640 medium supplemented with 10% fetal bovine serum at 37° C. in an atmosphere of […] in air. The tumor cells were routinely subculture weekly by trypsin-EDTA treatment, not to exceed 4-5 passages. The cells growing in an exponential growth phase was harvested and counted for tumor inoculation.
# Each mouse was inoculated subcutaneously on the central right flank with KP-4 tumor cells (1×10^7) in 0.1 mL of RPMI-1640 without serum for the tumor development. The treatment started when the mean tumor size reached approximately 100 mm^3. Mice were assigned to groups such that the mean tumor volume is the same for each treatment group and time point.
# For routine monitoring, all study animals were monitored for not only tumor growth but also behavior such as mobility, food, and water consumption (by cage side checking only), body weight (BW), eye/hair matting and any other abnormal effect. Any mortality and/or abnormal clinical signs were recorded.
# Body weights of all animals were measured twice a week throughout the study. Body weight change, expressed in %, will be calculated using the following formula: BW change (%)=(BWDay x/BWDay 0)×100, where BWDay x is BW on a given day, and BWDay 0 is BW on Day 0 (initiation of treatment).
# The measurement of tumor size were conducted twice a week with a caliper and the tumor volume (mm^3) was estimated using the formula: TV=a×b^2/2, where a and b are long and short diameters of a tumor, respectively. The TVs were used for calculation of the tumor growth inhibition (TGI, an indicator of antitumor effectiveness) value using the formula: TGI (%)=[1−(Tn−T0)/(Cn−C0)]×100%, only over the dosing period (dosing days 0 to days n). Where: Tn—is the avg tumor volume at the respective day “n” after dosing throughout treatment period; T0—is the avg tumor volume in the treatment group at day 0 before treatment (immediately before); Cn—avg tumor volume in the control group at the respective day “n” after dosing throughout treatment period; and C0—average tumor volume in the control group at day 0 before treatment (immediately before). The experiment was terminated when the mean tumor volume exceeded 2000 mm^3 or severe body weight loss.
# The statistical software GraphPad Prism (version number: 8) was used to analyze the difference in tumor volume between the treatment group and the solvent control group. Two-way ANOVA and Bonferroni multiple tests were used to compare whether there was a significant difference in tumor volume between the vehicle control group and each treatment group during the administration period.
# (§1) Mean tumor volume at dosing start was approximately 102 mm^3, with ten mice randomized to each treatment group. In the KP4 MTAP null tumor model, mice were dosed orally, once per day (QD) with Vehicle, once per day (QD) with Compound 1 at 1, 3 mg/kg, once per day (QD) with AG270 at 100 mg/kg, mice were intravenous, per week with Docetaxel at 2.5 mg/kg, or Compound 1 combined with Docetaxel at each dose level.
# [1] = test system: HCC15 MTAP null xenografts; experiment: Efficacy study of HCC15 human lung cancer xenograft model in NOD SCID mice; type: in vivo; details: for Tumor volume (mm^3) Final (mean): Mean ± SD
# Method: Efficacy Study of HCC15 Human Lung Cancer Xenograft Model in NOD SCID Mice Methods:
# The HCC15 cells were maintained in vitro as a monolayer culture in 90% 1640+10% FBS, 100U/ml penicillin and 100 μg/ml streptomycin at 37° C. in an atmosphere of 5% CO2 in air. The tumor cells were routinely subcultured at a ratio of 1:2 to 1:3 every 3-4 days. Alternatively, Cultures were maintained by addition or replacement of fresh medium. Started cultures at 5×10^5 cells/mL and maintained between 0.5×10^5 and 2×10^6 cells/ml.
# NOD SCID mice, female, 6-8 weeks, weighing approximately 20-22 g.
# Each mouse were inoculated subcutaneously at the right flank with HCC15 cells in a 0.2 mL mixture of 1640 for tumor development (5×10^6 cells/mouse). Dosing was started when the average tumor size reaches approximately 100-200 mm^3 for the tumor efficacy study with tool and med chem molecules to look for efficacy vs vehicle tumor growth.
# as §1, with “133.09” for “102”, “HCC15” for “KP4”, “at” for “at 1,”
# MAT2A = MAT2A (Homo sapiens, UniProt P31153); experiment: MAT2A Biochemical Assay; details: read-out: MAT2A enzymatic IC50
# Sequence of MAT2A (P31153 whole entry, species assumed): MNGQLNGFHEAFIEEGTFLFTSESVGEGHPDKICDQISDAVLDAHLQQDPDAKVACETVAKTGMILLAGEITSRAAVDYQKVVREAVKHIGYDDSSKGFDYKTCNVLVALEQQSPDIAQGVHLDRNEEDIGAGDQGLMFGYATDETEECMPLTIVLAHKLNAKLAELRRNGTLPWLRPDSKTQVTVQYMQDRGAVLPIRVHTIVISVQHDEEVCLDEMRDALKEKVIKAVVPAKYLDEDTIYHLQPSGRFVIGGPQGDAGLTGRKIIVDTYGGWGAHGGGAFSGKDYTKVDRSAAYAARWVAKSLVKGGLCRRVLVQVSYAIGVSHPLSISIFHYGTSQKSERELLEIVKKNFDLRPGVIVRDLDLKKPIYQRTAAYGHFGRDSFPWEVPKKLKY
# Method: Example A: MAT2A Biochemical Assay
# Compounds described herein were tested as follows:
# • (1). Prepared 1×Assay buffer. • (2). Preparation of compound concentration gradient: the compounds test condition were […], 3-fold dilution, 10 doses, singlet or duplicate. 100x concentration compounds were prepared in 384-well plate. Then used Echo 550 to transfer 250 nl to a 384-reaction plate for later use. Added 250 nl of 100% DMSO to the negative and positive control wells. • (3). Prepared 1.67× final concentration enzyme solution with 1×Assay buffer. • (4). Added 15 μl of 1.67× Enzyme solution to the compound wells and positive control wells; added 15 μl of 1×Assay buffer to the negative control wells. • (5). Centrifuged at 1000 rpm for 30 seconds and incubate for 15 minutes. • (6). Prepared 2.5× final concentration Substrate mix solution with 1×Assay buffer. • (7). Added 10 μl of 2.5× final concentration Substrate mix solution to start the reaction. • (8). Centrifuged at 1000 rpm for 30 seconds and incubate for 150 minutes. • (9). Added […] Biomol Green to stop the reaction, centrifuge at 1000 rpm for 30 seconds and incubate for 15 minutes. read O.D.620, process data.
# • (1) Using GraphPad Prism 5.
# [formula] • (3) Max signal was obtained from the positive control wells. • (4) Min signal was obtained from the negative control wells.
# [2] = test system: NCI-H838 MTAP null xenografts; experiment: Efficacy study of NCI-H838 human lung cancer xenograft model in NOD SCID mice; type: in vivo; details: MRTX1719 50 mg/kg QD
# Excerpt: Efficacy Study of NCI-H838 Human Lung Cancer Xenograft Model in NOD SCID Mice Methods:
# The NCI-H838 cancer cells were maintained in vitro with RPMI-1640 medium supplemented with 10% fetal bovine serum at 37TC in an atmosphere of 5% CO2 in the air. The cells in exponential growth phase were harvested and quantitated by cell counter before tumor inoculation.
# NOD SCID mice, female, 6-8 weeks, weighing approximately 20-22 g, All the mice were purchased from Shanghai Lingchang Bio-Tech Co., Ltd.
# Each mouse was inoculated subcutaneously at the right flank with NCI-H838 cells in a 0.1 mL of PBS mixed with Matrigel (1:1) for tumor development (5×10^6 cells/mouse). Dosing was started when the average tumor size reached approximately ~150 mm^3 for the tumor efficacy study with tool and med chem molecules to look for efficacy vs vehicle tumor growth.
# Mean tumor volume at dosing start was approximately 146.51 mm^3, with six mice randomized to each treatment group. In the NCI-H838 MTAP null tumor model, mice were dosed orally, once per day (QD) with vehicle, once per day (QD) with Compound 1 at 3, 10 mg/kg, mice were intravenous, once per day (QD) with PRMT5 inhibitor MRTX1719 at 50 mg/kg, or Compound 1 combined with MRTX1719 at each dose level.
# [3] = Docetaxel 2.5 mg/kg intravenous per week
Molecule,IC50 (MAT2A) [µM],also measured
"CC(=O)O[C@@]12CO[C@@H]1C[C@H](O)[C@@]1(C)C(=O)[C@H](O)C3=C(C)[C@@H](OC(=O)[C@H](O)[C@@H](NC(=O)OC(C)(C)C)c4ccccc4)C[C@@](O)([C@@H](OC(=O)c4ccccc4)[C@H]21)C3(C)C [Docetaxel, docetaxel, reference compound]",–,"TGI (%) (KP4 MTAP null xenografts; [3]): 51.6%; Tumor volume (mm^3) Final (mean) (KP4 MTAP null xenografts; [3]): 1,159 ± 129 mm^3; TGI (%) [1, 3]: 58.5%; Tumor volume (mm^3) Final (mean) [1, 3]: 515 ± 36 mm^3"
C#CCNc1nc(=O)n(-c2nccnc2C)c2cc(C(F)(F)F)cc(OC)c12 [Example 48],< 0.05,–
C#CC1(Nc2nc(=O)n(-c3cccnc3C)c3cc(C(F)(F)F)cc(OC)c23)CC1 [Example 49],< 0.05,–
C#CC1(Nc2nc(=O)n(-c3cccnc3C)c3cc(C(F)(F)F)cc(OC)c23)CCC1 [Example 50],< 0.05,–
C#CCN(C)c1nc(=O)n(-c2cccnc2)c2cc(C(F)(F)F)ccc12 [Example 51],< 0.05,–
C#CCNc1nc(=O)n(-c2c(C)ccnc2C)c2cc(C(F)(F)F)ccc12 [Example 52],< 0.05,–
C#CCNc1nc(=O)n(-c2cnccn2)c2cc(C(F)(F)F)ccc12 [Example 53],< 0.05,–
C#CCNc1nc(=O)n(-c2cnccn2)c2cc(C(F)(F)F)cc(OC)c12 [Example 54],< 0.05,–
C#CC1(Nc2nc(=O)n(-c3cccnc3)c3cc(C(F)(F)F)cnc23)CC1 [Example 56],> 1,–
"Cn1ncc(-c2ccc3c(=O)[nH]nc(CN)c3c2)c1-c1c(F)c(Cl)cc(OC2CC2)c1C#N [MRTX1719, reference compound]",–,TGI (%) [2]: 81.5%; Tumor volume (mm^3) Final (mean) ([2]; Mean ± SD): 501 ± 69 mm^3
AG270 [reference compound],–,"TGI (%) (KP4 MTAP null xenografts; AG270 100 mg/kg orally QD): 55.7%; Tumor volume (mm^3) Final (mean) (KP4 MTAP null xenografts; AG270 100 mg/kg orally QD): 1,070 ± 132 mm^3; TGI (%) ([1]; AG270 100 mg/kg orally QD, 100 mg/kg): 55.3%; Tumor volume (mm^3) Final (mean) ([1]; AG270 100 mg/kg orally QD): 544 ± 30 mm^3"

# Further lines, with some results ahead:
IC50 (MAT2A) [µM],Molecule,also measured
< 0.05,C#CCNc1nc(=O)n(-c2cccnc2)c2nc(C(F)(F)F)ccc12 [Example 57],–
< 0.05,C#CCNc1nc(=O)n(-c2cccnc2)c2nc(C(F)(F)F)ncc12 [Example 61],–
< 0.05,C#CCNc1nc(=O)n(-c2cccnn2)c2nc(C(F)(F)F)ccc12 [Example 63],–
< 0.05,C#CC(C)Nc1nc(=O)n(-c2cccnc2)c2cc(C(F)(F)F)ccc12 (centres unmarked) [Example 64],–
< 0.05,C#CC1(Nc2nc(=O)n(-c3cccnc3)c3cc(Cl)cc(OC)c23)CC1 [Example 66],–
< 0.05,C#CC1(Nc2nc(=O)n(-c3cccnc3)c3cc(C(F)(F)F)ccc23)CC1 [Example 67],–
< 0.05,C#CC1(Nc2nc(=O)n(-c3cccnc3)c3nc(C(F)(F)F)ccc23)CC1 [Example 68],–
< 0.05,C#CC1(Nc2nc(=O)n(-c3cnccn3)c3cc(C(F)(F)F)ccc23)CC1 [Example 69],–
< 0.05,C#CC1(Nc2nc(=O)n(-c3cccnn3)c3nc(C(F)(F)F)ccc23)CC1 [Example 70],–
< 0.05,C=CCNc1nc(=O)n(-c2cccnc2)c2cc(Cl)cc(OC)c12 [Example 73],–
< 0.05,C=CCNc1nc(=O)n(-c2cccnc2C)c2cc(Cl)cc(OC)c12 [Example 74],–
< 0.05,C=CC1(Nc2nc(=O)n(-c3cccnc3C)c3cc(Cl)cc(OC)c23)CC1 [Example 75],–
< 0.05,C=CCNc1nc(=O)n(-c2cccnc2)c2cc(C(F)(F)F)ccc12 [Example 76],–
< 0.05,C=CCNc1nc(=O)n(-c2cccnc2C)c2cc(C(F)(F)F)cc(OC)c12 [Example 77],–
